Source: PubChem BioAssay AID651618 (Broad Institute, 2012)
Activity calls are given as the source filed them. No rule for the calls is given here.

System: M. tuberculosis replicating log phase, growth inhibition
Experiment: replicating M. tuberculosis growth inhibition, dose response, counter-screen, dry powder, IC90 (AID 651618)
Details: not given

Question: For c1ccc(-c2nnc(SCCN3CCN(c4ccccc4)CC3)o2)cc1, which IC90 is on record?
Answer: Its IC90 is 125 µM.

Question: Which IC90 does the source give for FC1(F)CCN(CCSc2nnc(-c3ccccc3)o2)CC1 here?
Answer: The IC90 was 250 µM.

Question: Which IC90 does the source give for c1ccc(CSc2nnc(-c3cccnc3)o2)cc1 here?
Answer: The IC90 was 250 µM.

Question: With COc1cccc(-c2nnc(SCc3ccccc3)o2)c1 as the molecule, how does the IC90 read?
Answer: The IC90 was 250 µM.

Question: For COCCOCCSc1nnc(-c2ccccc2)o1, which IC90 is on record?
Answer: Its IC90 is 250 µM.

Question: Which IC90 does the source give for Fc1cccc(CSc2nnc(-c3ccccc3)o2)c1 here?
Answer: Its IC90 is 250 µM.

Question: Which IC90 does the source give for Cc1cccc(CSc2nnc(-c3ccccc3)o2)c1 here?
Answer: The IC90 was 250 µM.

Question: Which IC90 does the source give for c1ccc(CCc2nnc(SCc3ccccc3)o2)cc1 here?
Answer: The IC90 was 250 µM.

Question: With c1ccc(CSc2nnc(C3CCCC3)o2)cc1 as the molecule, how does the IC90 read?
Answer: Its IC90 is 250 µM.

Question: For FC(F)(F)Oc1cccc(-c2nnc(SCc3ccccc3)o2)c1, which IC90 is on record?
Answer: Its IC90 is 250 µM.

Question: With COc1ccccc1-c1nnc(SCc2ccccc2)o1 as the molecule, how does the IC90 read?
Answer: The IC90 was 250 µM.

Question: With COc1cccc(CSc2nnc(-c3ccccc3)o2)c1 as the molecule, how does the IC90 read?
Answer: The IC90 was 250 µM.

Question: For c1ccc(CSc2nnc(-c3ccccc3)o2)cc1, which IC90 is on record?
Answer: Its IC90 is 125 µM.

Question: With c1ccc(CSc2nnc(-c3cccs3)o2)cc1 as the molecule, how does the IC90 read?
Answer: Its IC90 is 250 µM.

Question: Which IC90 does the source give for Cc1ccc(-c2nnc(SCc3ccccc3)o2)cc1 here?
Answer: Its IC90 is 125 µM.

Question: With c1ccc(CSc2nnc(C3CCCCC3)o2)cc1 as the molecule, how does the IC90 read?
Answer: The IC90 was 250 µM.

Question: For Fc1ccccc1CSc1nnc(-c2ccccc2)o1, which IC90 is on record?
Answer: Its IC90 is 250 µM.

Question: For FC(F)(F)c1cccc(CSc2nnc(-c3ccccc3)o2)c1, which IC90 is on record?
Answer: Its IC90 is 250 µM.

Question: With CC(C)c1nnc(SCc2ccccc2)o1 as the molecule, how does the IC90 read?
Answer: The IC90 was 250 µM.

System: not listed separately
Experiment: as above
Details: M. tuberculosis replicating log phase, growth inhibition

Question: Which outcome does the source give for Brc1ccc(CSc2nnc(-c3ccccc3)o2)cc1 here?
Answer: The outcome was “inactive”.

Question: Which outcome does the source give for c1ccc(CSc2nnc(-c3cc4ccccc4o3)o2)cc1 here?
Answer: The outcome was “inactive”.

Question: For c1ccc(CSc2nnc(-c3cscn3)o2)cc1, which outcome is on record?
Answer: The outcome was “inactive”.

Question: Which outcome does the source give for Cc1ccccc1-c1nnc(SCc2ccccc2)o1 here?
Answer: The outcome was “inactive”.

Question: With c1ccc(CCc2nnc(-c3ccccc3)o2)cc1 as the molecule, how does the outcome read?
Answer: The outcome was “inactive”.

Question: For Cc1nnc(SCc2ccccc2)o1, which outcome is on record?
Answer: The outcome was “inactive”.

Question: With FC(F)(F)Oc1cccc(CSc2nnc(-c3ccccc3)o2)c1 as the molecule, how does the outcome read?
Answer: The outcome was “inactive”.

Question: Which outcome does the source give for COc1ccccc1CSc1nnc(-c2ccccc2)o1 here?
Answer: Its outcome is “inactive”.

Question: For c1ccc(CSc2nnc(-c3ccccn3)o2)cc1, which outcome is on record?
Answer: The outcome was “inactive”.

Question: With FC1(F)CN(CCSc2nnc(-c3ccccc3)o2)C1 as the molecule, how does the outcome read?
Answer: The outcome was “inactive”.

Question: Which outcome does the source give for c1ccc(CSc2nnc(Cc3ccccc3)o2)cc1 here?
Answer: Its outcome is “inactive”.

Question: With Fc1ccc(-c2nnc(SCc3ccccc3)o2)cc1 as the molecule, how does the outcome read?
Answer: The outcome was “inactive”.

Question: Which outcome does the source give for CS(=O)(=O)c1cccc(-c2nnc(SCc3ccccc3)o2)c1 here?
Answer: The outcome was “inactive”.

Question: For c1ccc(-c2nnc(SC(c3ccccc3)c3ccccc3)o2)cc1, which outcome is on record?
Answer: The outcome was “inactive”.

Question: For CS(=O)(=O)c1ccccc1-c1nnc(SCc2ccccc2)o1, which outcome is on record?
Answer: Its outcome is “inactive”.

Question: Which outcome does the source give for O=C(Cc1ccccc1)C(C(=O)c1nnc(-c2ccccc2)o1)c1ccccc1 (stereo unspecified) here?
Answer: The outcome was “inactive”.

Question: Which outcome does the source give for N#Cc1ccc(CSc2nnc(-c3ccccc3)o2)cc1 here?
Answer: The outcome was “inactive”.

Question: With Fc1ccccc1-c1nnc(SCc2ccccc2)o1 as the molecule, how does the outcome read?
Answer: Its outcome is “inactive”.

Question: For FC(F)(F)c1ccc(-c2nnc(SCc3ccccc3)o2)cc1, which outcome is on record?
Answer: The outcome was “inactive”.

Question: For COc1ccc(-c2nnc(SCc3ccccc3)o2)cc1, which outcome is on record?
Answer: Its outcome is “inactive”.

Question: For c1ccc(CNCCSc2nnc(-c3ccccc3)o2)cc1, which outcome is on record?
Answer: Its outcome is “inactive”.

Question: Which outcome does the source give for c1ccc(CSc2nnc(-c3ccncc3)o2)cc1 here?
Answer: Its outcome is “inactive”.

Question: With CS(=O)(=O)c1cccc(CSc2nnc(-c3ccccc3)o2)c1 as the molecule, how does the outcome read?
Answer: The outcome was “inactive”.

Question: For c1ccc(-c2nnc(SCCN3CCOCC3)o2)cc1, which outcome is on record?
Answer: Its outcome is “inactive”.

Question: Which outcome does the source give for FC(F)(F)CNCCSc1nnc(-c2ccccc2)o1 here?
Answer: Its outcome is “inactive”.

Question: Which outcome does the source give for CS(=O)(=O)c1ccc(CSc2nnc(-c3ccccc3)o2)cc1 here?
Answer: Its outcome is “inactive”.

Question: With COc1ccc(CSc2nnc(-c3ccccc3)o2)cc1 as the molecule, how does the outcome read?
Answer: Its outcome is “inactive”.

Question: With c1ccc(CSc2nnc(-c3ccc(-c4ccccc4)cc3)o2)cc1 as the molecule, how does the outcome read?
Answer: Its outcome is “inactive”.

Question: Which outcome does the source give for c1ccc(-c2nnc(SCc3ncco3)o2)cc1 here?
Answer: Its outcome is “inactive”.

Question: For FC(F)(F)Oc1ccccc1-c1nnc(SCc2ccccc2)o1, which outcome is on record?
Answer: Its outcome is “inactive”.

Question: For CS(=O)(=O)c1ccc(-c2nnc(SCc3ccccc3)o2)cc1, which outcome is on record?
Answer: Its outcome is “inactive”.

Question: With FC(F)(F)Oc1ccc(CSc2nnc(-c3ccccc3)o2)cc1 as the molecule, how does the outcome read?
Answer: Its outcome is “inactive”.

Question: With Cc1cccc(-c2nnc(SCc3ccccc3)o2)c1 as the molecule, how does the outcome read?
Answer: Its outcome is “inactive”.

Question: With Clc1cccc(-c2nnc(SCc3ccccc3)o2)c1 as the molecule, how does the outcome read?
Answer: The outcome was “inactive”.

Question: For c1ccc(CNc2nnc(-c3ccccc3)o2)cc1, which outcome is on record?
Answer: Its outcome is “inactive”.

Question: Which outcome does the source give for Cc1ccc(CSc2nnc(-c3ccccc3)o2)cc1 here?
Answer: The outcome was “inactive”.

Question: For c1ccc(CSc2ncc(-c3ccccc3)o2)cc1, which outcome is on record?
Answer: The outcome was “inactive”.

Question: For c1ccc(-c2nnc(SCCN3CCCC3)o2)cc1, which outcome is on record?
Answer: The outcome was “inactive”.

Question: Which outcome does the source give for c1ccc(CSc2nnc(-c3ccccc3)s2)cc1 here?
Answer: The outcome was “inactive”.

Question: With CN(Cc1ccccc1)c1nnc(-c2ccccc2)o1 as the molecule, how does the outcome read?
Answer: Its outcome is “inactive”.

Question: Which outcome does the source give for N#Cc1ccc(-c2nnc(SCc3ccccc3)o2)cc1 here?
Answer: The outcome was “inactive”.

Question: Which outcome does the source give for N#Cc1ccccc1CSc1nnc(-c2ccccc2)o1 here?
Answer: The outcome was “inactive”.

Question: Which outcome does the source give for FC(F)(F)Oc1ccccc1CSc1nnc(-c2ccccc2)o1 here?
Answer: Its outcome is “inactive”.

Question: With N#Cc1cccc(CSc2nnc(-c3ccccc3)o2)c1 as the molecule, how does the outcome read?
Answer: The outcome was “inactive”.

Question: Which outcome does the source give for COc1ccc(-c2nnc(SCc3ccc(Cl)cc3)o2)cc1 here?
Answer: Its outcome is “inactive”.

Question: With c1ccc(CSc2nnc(-c3cnco3)o2)cc1 as the molecule, how does the outcome read?
Answer: Its outcome is “inactive”.

Question: For Clc1ccccc1-c1nnc(SCc2ccccc2)o1, which outcome is on record?
Answer: The outcome was “inactive”.

Question: For c1ccc(-c2ccc(CSc3nnc(-c4ccccc4)o3)cc2)cc1, which outcome is on record?
Answer: Its outcome is “inactive”.

Question: With c1ccc(CSc2nnc(-c3ccco3)o2)cc1 as the molecule, how does the outcome read?
Answer: The outcome was “inactive”.

Question: Which outcome does the source give for Fc1ccc(CSc2nnc(-c3ccccc3)o2)cc1 here?
Answer: The outcome was “inactive”.

Question: Which outcome does the source give for N#Cc1cccc(-c2nnc(SCc3ccccc3)o2)c1 here?
Answer: The outcome was “inactive”.

Question: With O=C(Cc1ccccc1)c1nnc(-c2ccccc2)o1 as the molecule, how does the outcome read?
Answer: The outcome was “inactive”.

Question: With Clc1ccccc1CSc1nnc(-c2ccccc2)o1 as the molecule, how does the outcome read?
Answer: Its outcome is “inactive”.

Question: With Cc1ccccc1CSc1nnc(-c2ccccc2)o1 as the molecule, how does the outcome read?
Answer: The outcome was “inactive”.

Question: With CN(C)CCSc1nnc(-c2ccccc2)o1 as the molecule, how does the outcome read?
Answer: Its outcome is “inactive”.

Question: Which outcome does the source give for Clc1ccc(-c2nnc(SCc3ccccc3)o2)cc1 here?
Answer: The outcome was “inactive”.

Question: For Clc1ccc(CSc2nnc(-c3ccccc3)o2)cc1, which outcome is on record?
Answer: Its outcome is “inactive”.

Question: For Clc1cccc(CSc2nnc(-c3ccccc3)o2)c1, which outcome is on record?
Answer: The outcome was “inactive”.

Question: With Fc1cccc(-c2nnc(SCc3ccccc3)o2)c1 as the molecule, how does the outcome read?
Answer: Its outcome is “inactive”.

Question: For FC(F)(F)c1ccccc1CSc1nnc(-c2ccccc2)o1, which outcome is on record?
Answer: The outcome was “inactive”.

Question: For FC(F)(F)c1cccc(-c2nnc(SCc3ccccc3)o2)c1, which outcome is on record?
Answer: The outcome was “inactive”.

Question: For FC(F)(F)c1ccc(CSc2nnc(-c3ccccc3)o2)cc1, which outcome is on record?
Answer: Its outcome is “inactive”.

Question: With CS(=O)(=O)c1ccccc1CSc1nnc(-c2ccccc2)o1 as the molecule, how does the outcome read?
Answer: Its outcome is “inactive”.

Question: Which outcome does the source give for c1ccc(-c2nnc(SCc3cscn3)o2)cc1 here?
Answer: The outcome was “inactive”.

Question: For CC1(O)CN(CCSc2nnc(-c3ccccc3)o2)C1, which outcome is on record?
Answer: The outcome was “inactive”.

Question: Which outcome does the source give for FC(F)(F)c1ccccc1-c1nnc(SCc2ccccc2)o1 here?
Answer: Its outcome is “inactive”.

Question: For FC(F)(F)Oc1ccc(-c2nnc(SCc3ccccc3)o2)cc1, which outcome is on record?
Answer: Its outcome is “inactive”.
